Assay results reported in patent publication US6472348B1, “Pyridone derivatives and herbicides” (Kumiai Chemical Industry Co., Ltd., priority 1996, dated 2002).

Columns and labels:
[1] = tested on: barnyardgrass (Ec); experiment: Test Example 1: herbicidal effects by paddy field soil treatment; assay type: in vivo; conditions: 100 g of the active ingredient per 10 ares, 21st day after the application, index 0-5 of Table 47;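 also: grade of growth control; 5 = at least 90%; 4 = 70 to 90%; 3 = 50 to 70%; 2 = 30 to 50%; 1 = 10 to 30%; 0 = under 10%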
Summary of the method: (§1)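 Flooded paddy-soil pots (3 cm water) sown after puddling/leveling; treatment 100 g a.i./10 ares; greenhouse culture; herbicidal effect rated visually on a scoring scale at 21 d post-application.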

[2] = tested on: bulrush (Sc); experiment: as above; assay type: in vivo; conditions: 100 g of the active ingredient per 10 ares, 21st day after the application, index 0-5 of Table 47;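 also: grade of growth control; 5 = at least 90%; 4 = 70 to 90%; 3 = 50 to 70%; 2 = 30 to 50%; 1 = 10 to 30%; 0 = under 10%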
Summary of the method: as §1

[3] = tested on: monochoria (Mo); experiment: as above; assay type: in vivo; conditions: 100 g of the active ingredient per 10 ares, 21st day after the application, index 0-5 of Table 47;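 also: grade of growth control; 5 = at least 90%; 4 = 70 to 90%; 3 = 50 to 70%; 2 = 30 to 50%; 1 = 10 to 30%; 0 = under 10%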
Summary of the method: as §1

[4] = tested on: Digitaria ciliaris (Di); experiment: Test Example 2: herbicidal effects by upland field soil treatment; assay type: in vivo; conditions: 100 g of the active ingredient per 10 ares;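 also: grade of growth control; 5 = at least 90%; 4 = 70 to 90%; 3 = 50 to 70%; 2 = 30 to 50%; 1 = 10 to 30%; 0 = under 10%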
From the text: (§2) (Test on Herbicidal Effects by Upland Field Soil Treatment)

[5] = tested on: barnyardgrass (Ec); experiment: as above; assay type: in vivo; conditions: 100 g of the active ingredient per 10 ares
From the text: as §2

[6] = tested on: common lambsquarters (Ch); experiment: as above; assay type: in vivo; conditions: 100 g of the active ingredient per 10 ares
From the text: as §2

[7] = tested on: pale smartweed (Po); experiment: as above; assay type: in vivo; conditions: 100 g of the active ingredient per 10 ares
From the text: as §2

[8] = tested on: rice flatsedge (Ci); experiment: as above; assay type: in vivo; conditions: 100 g of the active ingredient per 10 ares
From the text: as §2

[9] = tested on: slender amaranth (Am); experiment: as above; assay type: in vivo; conditions: 100 g of the active ingredient per 10 ares
From the text: as §2

[10] = tested on: Diaitaria ciliaris (Di); experiment: Test Example 3: herbicidal effects by upland field foliage treatment; assay type: in vivo; parameters: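 grade of growth control; 5 = at least 90%; 4 = 70 to 90%; 3 = 50 to 70%; 2 = 30 to 50%; 1 = 10 to 30%; 0 = under 10%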
Summary of the method: (§3)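 Scoring used a standard effect scale on the 14th day post-treatment, with plants held in a greenhouse throughout. Foliar application was made to weeds raised from seed in sand-filled pots for 2 weeks.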

[11] = tested on: barnyardgrass (Ec); experiment: as above; assay type: in vivo; parameters: scale not given here
Summary of the method: as §3

[12] = tested on: common lambsquarters (Ch); experiment: as above; assay type: in vivo; parameters: scale not given here
Summary of the method: as §3

[13] = tested on: pale smartweed (Po); experiment: as above; assay type: in vivo; parameters: scale not given here
Summary of the method: as §3

[14] = tested on: rice flatsedge (Ci); experiment: as above; assay type: in vivo; parameters: scale not given here
Summary of the method: as §3

[15] = tested on: slender amaranth (Am); experiment: as above; assay type: in vivo; parameters: scale not given here
Summary of the method: as §3

[16] = tested on: wheat (Tr); experiment: Test Example 9: crop plant selectivity by upland field foliage treatment (wheat), phytotoxicity; conditions: dose 1.6 g ai/10a, 14th day after treatment
Summary of the method: (§4)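 Sand-filled pot, wheat + weeds co-sown; greenhouse 2 wk, then foliage treatment; greenhouse culture continued; visual scoring of weed control and crop injury at 14 d post-treatment per grading scale.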

[17] = tested on: China jute (Ab); experiment: Test Example 9: crop plant selectivity by upland field foliage treatment (wheat), herbicidal effects; assay type: in vivo; parameters: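 grade of growth control; 5 = at least 90%; 4 = 70 to 90%; 3 = 50 to 70%; 2 = 30 to 50%; 1 = 10 to 30%; 0 = under 10%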; conditions: dose 1.6 g ai/10a, 14th day after treatment
Summary of the method: as §4

[18] = tested on: common lambsquarters (Ch); experiment: as above; assay type: in vivo; parameters: scale not given here; conditions: dose 1.6 g ai/10a, 14th day after treatment
Summary of the method: as §4

[19] = tested on: pale smartweed (Po); experiment: as above; assay type: in vivo; parameters: scale not given here; conditions: dose 1.6 g ai/10a, 14th day after treatment
Summary of the method: as §4

[20] = tested on: slender amaranth (Am); experiment: as above; assay type: in vivo; parameters: scale not given here; conditions: dose 1.6 g ai/10a, 14th day after treatment
Summary of the method: as §4

[21] = tested on: corn (Ze); experiment: Test Example 11: crop plant selectivity by upland field foliage treatment (corn), phytotoxicity; conditions: upland field foliage treatment, dose 1.6 g ai/10a, 14th day after treatment
Description: (§5) (Test on Crop Plant Selectivity by Upland Field Foliage Treatment)
(§6) In a plastic pot (surface area: 600 cm^2) filled with sand, corn (Ze), pale smartweed (Po), slender amaranth (Am), common lambsquarters (Ch) and China jute (Ab) were sown and cultured in a green house for 2 weeks. […] The plants were then cultured in a green house, and the evaluation of the herbicidal effects and phytotoxicity was conducted on the 14th day after the treatment in accordance with the standards as identified in Table 47.

[22] = tested on: China jute (Ab); experiment: Test Example 11: crop plant selectivity by upland field foliage treatment (corn), herbicidal effects; assay type: in vivo; parameters: scale not given here; conditions: upland field foliage treatment (corn test), dose 1.6 g ai/10a, 14th day after treatment
Description: as §5, §6

[23] = tested on: common lambsquarters (Ch); experiment: as above; assay type: in vivo; parameters: scale not given here; conditions: upland field foliage treatment (corn test), dose 1.6 g ai/10a, 14th day after treatment
Description: as §5, §6

[24] = tested on: pale smartweed (Po); experiment: as above; assay type: in vivo; parameters: scale not given here; conditions: upland field foliage treatment (corn test), dose 1.6 g ai/10a, 14th day after treatment
Description: as §5, §6

[25] = tested on: slender amaranth (Am); experiment: as above; assay type: in vivo; parameters: scale not given here; conditions: upland field foliage treatment (corn test), dose 1.6 g ai/10a, 14th day after treatment
Description: as §5, §6

[26] = 21st day after the application, index 0-5 of Table 47
[27] = 100 g of the active ingredient per 10 ares, evaluated on the 14th day after treatment
[28] = evaluated on the 21st day after application
[29] = 100 g active ingredient per 10 ares, evaluated 14th day after treatment

Compound | Herbicidal effects Ec [1] | Herbicidal effects Sc [2] | Herbicidal effects Mo [3] | Phytotoxicity Tr [16] | Herbicidal effects Ab [17] | Herbicidal effects Ch [18] | Herbicidal effects Po [19] | Herbicidal effects Am [20] | Phytotoxicity Ze [21] | Herbicidal effects Ab [22] | Herbicidal effects Ch [23] | Herbicidal effects Po [24] | Herbicidal effects Am [25] | Herbicidal effects Di [4, 28] | Herbicidal effects Ec [5, 28] | Herbicidal effects Ch [6, 28] | Herbicidal effects Po [7, 28] | Herbicidal effects Ci [8, 28] | Herbicidal effects Am [9, 28] | Herbicidal effects Di [10, 29] | further results
Cn1c(C(F)(F)F)ccc(-c2cc(C(=O)OCCBr)c(Cl)cc2F)c1=O [1-134] | 5 | 5 | 5 | 2 | 5 | 5 | 5 | 5 | 2 | 5 | 5 | 5 | 5 |  |  |  |  |  |  |  | Herbicidal effects Di [4, 26]: 5; Herbicidal effects Ec [5, 26]: 5; Herbicidal effects Ch [6, 26]: 5; Herbicidal effects Po [7, 26]: 5; Herbicidal effects Ci [8, 26]: 5; Herbicidal effects Am [9, 26]: 5; Herbicidal effects Di [10, 27]: 5; Herbicidal effects Ec [11, 27]: 5; Herbicidal effects Ch [12, 27]: 5; Herbicidal effects Po [13, 27]: 5; Herbicidal effects Ci [14, 27]: 5; Herbicidal effects Am [15, 27]: 5
Cn1c(C(F)(F)F)ccc(-c2cc(OC3CCOC3)c(Cl)cc2F)c1=O (stereo not shown) [1-162] | 5 | 5 | 5 | 2 | 5 | 5 | 5 | 5 | 2 | 5 | 5 | 5 | 5 |  |  |  |  |  |  |  | Herbicidal effects Di [4, 26]: 5; Herbicidal effects Ec [5, 26]: 5; Herbicidal effects Ch [6, 26]: 5; Herbicidal effects Po [7, 26]: 5; Herbicidal effects Ci [8, 26]: 5; Herbicidal effects Am [9, 26]: 5; Herbicidal effects Di [10, 27]: 5; Herbicidal effects Ec [11, 27]: 5; Herbicidal effects Ch [12, 27]: 5; Herbicidal effects Po [13, 27]: 5; Herbicidal effects Ci [14, 27]: 5; Herbicidal effects Am [15, 27]: 5
CC(C#N)Oc1cc(-c2ccc(C(F)(F)F)n(C)c2=O)c(F)cc1Cl (stereo not shown) [1-176] | 5 | 5 | 5 | 1 | 5 | 5 | 5 | 5 | 1 | 5 | 5 | 5 | 5 | 5 | 5 | 5 | 5 | 5 | 5 |  | Herbicidal effects Di [10, 27]: 5; Herbicidal effects Ec [11, 27]: 5; Herbicidal effects Ch [12, 27]: 5; Herbicidal effects Po [13, 27]: 5; Herbicidal effects Ci [14, 27]: 5; Herbicidal effects Am [15, 27]: 5
C=CCN1C(=O)COc2ccc(-c3ccc(C(F)(F)F)n(C)c3=O)cc21 [2-31] | 5 | 5 | 5 | 2 | 5 | 5 | 5 | 5 | 2 | 5 | 5 | 5 | 5 | 5 | 5 | 5 | 5 | 5 | 5 | 5 | Herbicidal effects Ec [11, 29]: 5; Herbicidal effects Ch [12, 29]: 5; Herbicidal effects Po [13, 29]: 5; Herbicidal effects Ci [14, 29]: 5; Herbicidal effects Am [15, 29]: 5
COCOCc1cc(-c2ccc(C(F)(F)F)n(C)c2=O)c(F)cc1Cl [Compound 1-200] | 5 | 5 | 5 | 2 | 5 | 5 | 5 | 5 | 2 | 5 | 5 | 5 | 5 | 5 | 5 | 5 | 5 | 5 | 5 | 5 | Herbicidal effects Ec [11, 29]: 5; Herbicidal effects Ch [12, 29]: 5; Herbicidal effects Po [13, 29]: 5; Herbicidal effects Ci [14, 29]: 5; Herbicidal effects Am [15, 29]: 5
Cn1c(C(F)(F)F)ccc(-c2cc(COC3CCCC3)c(Cl)cc2F)c1=O [Compound 1-201] | 5 | 5 | 5 | 2 | 5 | 5 | 5 | 5 | 2 | 5 | 5 | 5 | 5 | 5 | 5 | 5 | 5 | 5 | 5 | 5 | Herbicidal effects Ec [11, 29]: 4; Herbicidal effects Ch [12, 29]: 5; Herbicidal effects Po [13, 29]: 5; Herbicidal effects Ci [14, 29]: 5; Herbicidal effects Am [15, 29]: 5
C=C(Cl)COc1cc(-c2ccc(C(F)(F)F)n(C)c2=O)c(F)cc1Cl [Compound 1-203] | 5 | 5 | 5 | 2 | 5 | 5 | 5 | 5 | 2 | 5 | 5 | 5 | 5 | 5 | 5 | 5 | 5 | 5 | 5 | 5 | Herbicidal effects Ec [11, 29]: 5; Herbicidal effects Ch [12, 29]: 5; Herbicidal effects Po [13, 29]: 5; Herbicidal effects Ci [14, 29]: 5; Herbicidal effects Am [15, 29]: 5
